Experimental data: patent US20070244030A1, “Method for Assessing Cancerous State” (SUMITOMO CHEMICAL COMPANY, LIMITED, priority 2003, published 2007)

Experiments:
Neurofilament3 gene [1] = assay: Real Time PCR of Neurofilament3 mRNA in HPAC cultured with methylation inhibitor; type: cell-based, human; settings: HPAC pancreatic cancer cell line, cells recovered on fourth day, not detected without inhibitor
Method: (§1) Two kinds of human-derived pancreatic cancer cell lines (PANC-1 and HPAC) were seeded at a density of about 6×10^5 cells/10 cm plate, and cultured using an exclusively used medium. On the first day after seeding, 5-aza-2′-deoxytidine (manufactured by Sigma) (hereinafter, referred to as 5Aza-dC) which is a methylation inhibitor was added to a medium to give the concentration of 0.5 or 1 μM. Twenty four hours after addition of 5Aza-Dc, the medium was exchanged with the aforementioned medium to which no 5Aza-dC was added, and culturing was continued. Then, on the third day after seeding, 5Aza-dC was added to the medium similarly. […]
(§2) A reaction solution of PCR was used which was obtained by mixing 50 ng of a cDNA as a template, each 1 μl of two kinds of 10 pmol/μl aforementioned primer solution, 4 μl of 2.5 mM dNTP, 4 μl of 5 mM dUTP, 5 μl of 10×SYBR Green PCR Buffer, 6 μof 25 mM MgCl2 and 0.3 μl of a 5 U/μl thermostable DNA polymerase (AmpliTaq Gold), 0.5 μl of AmpEraseUNG and adding sterilized ultrapure water thereto to an amount of solution of 50 μl. […] When a DNA derived from mRNA of Neurofilament3 gene and GAPDH gene was amplified, after the reaction solution Was retained at 95° C. for 10 minutes, Real Time PCR was performed at the conditions under which each cycle was 30 seconds at 95° C., 30 seconds at 59° C. and 30 seconds at 72° C. to quantitate Neurofilament3 gene and GAPDH gene.

Neurofilament3 gene [2] = assay: Real Time PCR of Neurofilament3 mRNA in PANC-1 cultured with methylation inhibitor; type: cell-based, human; settings: PANC-1 pancreatic cancer cell line, cells recovered on fourth day, not detected without inhibitor
Method: as §1, §2

[3] = 0.5 μM 5Aza-dC added on first and third day
[4] = 1 μM 5Aza-dC added on first and third day

Measured: DNA derived from a mRNA of Neurofilament3 gene (expression of Neurofilament3 gene)

Nc1ncn([C@H]2C[C@H](O)[C@@H](CO)O2)c(=O)n1 [5Aza-dC, 5-aza-2′-deoxytidine]
detected: Neurofilament3 gene [1]; [3] | Neurofilament3 gene [1]; [4] | Neurofilament3 gene [2]; [3] | Neurofilament3 gene [2]; [4]
